Reference: patent US20240065988A1, “COMBINED USE OF KETAMINE AND RETIGABINE (EZOGABINE) FOR THE TREATMENT OF PSYCHIATRIC DISORDERS” (Yeda Research and Development Co. Ltd., priority 2021, published 2024)

What was measured:
[1] = tested on: primary hippocampal neurons; assay: qPCR mRNA expression in primary hippocampal neurons treated with ketamine or HNKet; format: cell-based, mouse; conditions: 10 μM
Description: (§1) Primary hippocampal neurons were generated from E16.5 embryos using a standard primary neuron cell culture protocol previously described [K. G. Schraut et al., Eur JNeurosci (2021) 53: 390-401]. Briefly, dissected hippocampi were harvested in ice-cold dissection medium (HBSS, 7 mM HEPES, 2 mM L-glutamine, 500 U/ml penicillin-streptomycin, all Thermo Fisher Scientific). The tissue was incubated for 10 minutes in 0.25% Trypsin-EDTA with 8 mM HEPES (Thermo Fisher Scientific) in a water bath at 37° C. Tissue was washed three times with serum medium (DMEM, 10% FBS, Thermo Fisher Scientific). The cells were dissociated by titration using glass Pasteur pipets 10 in serum medium and filtered with a 70 tm cell strainer (Corning). Cell culture plates were coated overnight with 0.05 mg/ml poly-D-lysine mol wt 70,000-150,000 (Sigma Aldrich) in 0.15 M borate buffer (pH=8.5). Cells were seeded in 24-well plates at a density of 5×10^4 cells in 1 ml growth medium (Neurobasal A medium, 1 x B27 supplement, 0.25×GlutaMAX, all Thermo Fisher Scientific) per well. All cultures were kept in a humidified incubator at 37° C. and 5% CO2. Growth medium was renewed after 7 days of culture. For all experiments, mature twenty-one-day old primary neuronal cultures were used.
Primary hippocampal neurons were generated from E16.5 embryos and cultured for 21 days, as described above (see Primary Cell Culture). For experiment 1 (FIGS. 3A-K), neurons were treated with a saline solution, (R,S)-ketamine (10 μM) (Ketaset, Zoetis, Germany) or (2R,6R)-HNKet (10 μM) (Sigma, Cat #SML1873-25MG) for 0, 2, 12, 24 or 48 hours and compared to untreated controls. For experiment 2 (FIGS. 6A-D), neurons were stimulated with either a saline solution, (2R,6R)-HNKet (10 μM), or a combination of (2R,6R)-HNKet (10 μM) plus nifedipine (10 μM) (Tocris Bioscience, Cat #1075), W-7 hydrochloride (10 μM) (Tocris, Cat #0369), or cyclosporine-A (1 μM) (Tocris, Cat #1101) for 30 minutes, 1, 2, or 6 hours, and compared to untreated controls.
Ketamine treatment regulates Kcnq2 in primary hippocampal neurons To corroborate the previous findings in glutamatergic neurons, it was next examined whether treatment of primary hippocampal neurons with either (R,S)-ketamine or its active metabolite, (2R,6R)-hydroxynorketamine (HNKet), could modify the mRNA expression of the 8 genes tested earlier in glutamatergic neurons. Mouse primary hippocampal neurons are mostly made up of glutamatergic neurons and therefore make a very good model system to further validate the previous in vivo findings. […]

[2] = tested on: KCNQ channel (KCNQ2/3, M-current); assay: In vitro whole-cell voltage-clamp recording of M-current (IM) density in primary hippocampal neurons; format: cell-based, mouse; conditions: HNKet 10 μM, 24 hours vs saline
[3] = tested on: Kcnq2 mRNA in primary hippocampal neurons; assay: Kcnq2 mRNA in primary hippocampal neurons stimulated with HNKet alone or plus nifedipine, W-7 or cyclosporine-A; format: cell-based, mouse
Description: as §1
Primary hippocampal neurons were generated from E16.5 embryos and cultured for 21 days, as described above (see Primary Cell Culture). For experiment 1 (FIGS. 3A-K), neurons were treated with a saline solution, (R,S)-ketamine (10 μM) (Ketaset, Zoetis, Germany) or (2R,6R)-HNKet (10 μM) (Sigma, Cat #SML1873-25MG) for 0, 2, 12, 24 or 48 hours and compared to untreated controls. For experiment 2 (FIGS. 6A-D), neurons were stimulated with either a saline solution, (2R,6R)-HNKet (10 μM), or a combination of (2R,6R)-HNKet (10 μM) plus nifedipine (10 μM) (Tocris Bioscience, Cat #1075), W-7 hydrochloride (10 μM) (Tocris, Cat #0369), or cyclosporine-A (1 μM) (Tocris, Cat #1101) for 30 minutes, 1, 2, or 6 hours, and compared to untreated controls. […]

mice (C57BL/6N) = assay: Forced swim test (FST), pharmacological manipulation of KCNQ; format: in vivo, mouse; conditions: XE991 1 and 3 mg/kg BW in combination with saline (FIG. 23A)
Description: C57BL/6N and CD-1 (ICR) male mice aged 10 weeks old were used in these experiments. Ketamine hydrochloride (Ketaset, Zoetis, Germany) was diluted in 0.9% NaCl solution (saline) and administered i.p at 1, 5 or 10 mg/kg BW, depending on the experiment design. The KNCQ inhibitor, XE991 (Alomone labs; Cat #: X-100) was diluted in 5% DMSO and administered i.p at 1 or 3 mg/kg BW. The KCNQ activator, Retigabine (Alomone labs; Cat #: R-100), was diluted in 5% DMSO and administered i.p at 1 or 5 mg/kg BW. As control, mice were injected with a DMSO-saline solution (5% DMSO). For all experiments, mice were tested 30 minutes after injection in the FST or over a period of 36 hours after injection in the social boxes.
Previous studies in rodents have shown that KCNQ function can be regulated with highly-specific agonists and antagonists [V. Barrese et al., Annu Rev Pharmacol Toxicol (2018) 58: 625-648]. To further explore the KCNQ channel as a potential therapeutic target of ketamine, it was examined whether pharmacological inhibition of KCNQ alone or in combination with ketamine had any effects on behavior. To accomplish this, a new cohort of mice received two injections with a combination of drugs. […] To assess the effects of ketamine, XE991 (KCNQ inhibitor), and its combination, these mice were exposed to a FST (FIG. 7A, left). […] The inventors then sought to test whether the effects of ketamine could be mimicked, increased or amplified using retigabine, also known as ezogabine, a selective KCNQ (Kcnq2/3) channel activator. Similarly to the previous experiment, mice were treated with saline, (R,S)-ketamine (10 mg/kg BW), or ketamine in combination with two different concentrations of retigabine (1 and 5 mg/kg BW) (FIG. 7A, right).
Next, it was examined whether retigabine could increase the sustained antidepressant-like effects produced by a single injection of ketamine in mice. Accordingly, a new cohort of mice were treated with a single dose of saline, ketamine, or ketamine in combination with retigabine (1 mg/kg) and antidepressant-like behaviors were assessed using the FST, 5—and 7-days post-injection (FIG. 8A). […] Next, as a potential therapeutic strategy for major depressive disorder (MDD), the synergistic effects of ketamine and retigabine was further investigated by testing whether or not retigabine can increase the antidepressant-like effects produced by ketamine in mice. […] Next, it was tested whether retigabine can produce similar synergistic effects in combination with traditional antidepressants. […] Lastly, using a new cohort of Nex-Cre-Ai9 mice, it was tested whether the adjunctive treatment of ketamine with retigabine, or escitalopram alone, could modify the expression of Kcnq2 mRNA in FACS sorted cells from the vHipp (FIG. 8F).

[4] = tested on: Kcnq2 mRNA in glutamatergic neurons of the vHipp; assay: qPCR mRNA levels in FACS-sorted glutamatergic neurons (Ai9+/tdTomato+) and remaining cells (Ai9-/tdTomato-) of Nex-Cre-Ai9 mice; format: in vivo, mouse; conditions: glutamatergic neurons (tdTomato+) of the vHipp, two days after treatment; ketamine 10, escitalopram 10, retigabine 1 mg/kg/BW
Description: Conditional transgenic mice expressing tdTomato in glutamatergic neurons of the forebrain (Nex-Cre;Ai9) were generated by crossing homozygous Nex-Cre mice [described in S. Goebbels et al., Genesis (2006) 44: 611-621] with homozygous Ai9 mice [Gt(ROSA)26Sortm9(CAG-tdTomato)Hze] [described in L. Madisen et al., Nat Neurosci (2010) 13: 133-140].
In order to further investigate these findings, a conditional reporter mouse line (Nex-Cre-Ai9) was generated where most glutamatergic neurons of the forebrain, including the hippocampus, are fluorescently labeled by tdTomato (Ai9) except for neurons in the dentate gyrus where Neurod6, the promoter used to target glutamatergic neurons driving Cre expression, is not expressed (FIG. 12) [J. Hartmann et al., Mol Psychiatry (2017) 22: 466-475]. Following the same paradigm used in the original cohort, mice were group-housed and injected with (R,S)-ketamine (10 mg/kg BW) or a saline vehicle control. The vHipp of these mice was dissected […] later (i.e. 2 days). Single-cell suspensions were prepared and individual cells were sorted using fluorescence activated cell sorting (FACS) (FIG. 2A) into two separate pools of cells from each mouse. One pool contained glutamatergic neurons (Ai9+) and a second contained all remaining cell types of the vHipp (Ai9-) (FIG. 2A and FIGS. 13A-C). […] These two separate pools of cells were then used to validate the scRNA-seq findings in glutamatergic neurons at the population level using quantitative real-time polymerase chain reaction (qPCR).
Next, it was tested whether retigabine can produce similar synergistic effects in combination with traditional antidepressants.

Which “mRNA expression of Hspa8, Snap25, Hsp90ab1, Ndufa4, Ilf2, E2f1 and Kcnq2” value ([1]; 2, 12, 24 or 48 hours) does the source give for `N[C@@]1(c2ccccc2Cl)CCC[C@@H](O)C1=O` [HNKet, (2R,6R)-hydroxynorketamine] here?
Its value is “significant changes”.

What about the “Kcnq2 mRNA expression” value ([1]; 2, 12, 24 or 48 hours vs untreated and saline controls) of the same molecule?
Its value is “significant upregulation at all time points tested”.

And the IM current density [2]?
Its IM current density is “significant increase in IM current density”.

What about the “Kcnq2 mRNA” value ([3]; 1, 2 and 6 hours of stimulation, HNKet 10 μM) of the same molecule?
Its value is “significant upregulation of Kcnq2 mRNA”.

What about the “expression of Kcnq2” value ([3]; 30 minutes of treatment, HNKet 10 μM) of the same molecule?
Its value is “No significant differences”.

Which “effect of inhibitor on the HNKet-induced upregulation of Kcnq2 mRNA” value ([3]; combined with HNKet 10 μM, nifedipine 10 μM, W-7 10 μM, cyclosporine-A 1 μM, 1, 2, 6 hours) does the source give for `Cl.NCCCCCCNS(=O)(=O)c1cccc2c(Cl)cccc12` [W-7, W-7 hydrochloride] here?
Its value is “eliminated the upregulation of Kcnq2”.

`O=C1c2ccccc2C(Cc2ccncc2)(Cc2ccncc2)c2ccccc21` [XE991, 10,10-bis(4-pirinydilmethyl)-9(10H)−antracenone] was tested. Which “immobility time during the FST” value (mice (C57BL/6N)) did it give?
Its value is “No significant differences”.

Which “Kcnq2 mRNA” value [4] does the source give for `CN(C)CCC[C@@]1(c2ccc(F)cc2)OCc2cc(C#N)ccc21` [escitalopram] here?
Its value is “No significant changes”.
